# Test system: T-cell
# Experiment: Ability of compound to inhibit the T-cell adhesion at 200 uM in cell adhesion assay
# Format: functional, Homo sapiens
row,Substance,T-cell binding [%]
1,H-VILPRG-OH,32
2,H-PRGGSV-OH,25
3,H-PSKVIL-OH,44
4,H-LPRGGS-OH,37
5,H-KVILPR-OH,49
6,H-VILARG-OH,62
7,H-ILPRGG-OH,46
8,H-VIAPRG-OH,46
9,H-VALPRG-OH,71
10,H-VILPRA-OH,68
11,H-AILPRG-OH,53

# Source: ChEMBL document CHEMBL1146673, “Inhibition of ICAM-1/LFA-1-mediated heterotypic T-cell adhesion to epithelial cells: design of ICAM-1 cyclic peptides” (2004)
